Assay results taken from patent US20030104507A1, “Method for detection of ATP” (priority 2001, published 2003).

Legend:
[1] = system: LucPpe2m146; experiment: Duration of luminescence (signal stability) and effects of media and sera, DTAB, ± pyrophosphate; format: biochemical, Photuris pennsylvanica; settings: 10 μM sodium pyrophosphate
Description: In some embodiments, the compositions of the invention were added to intact cells to lyse them, and then ATP detected. In other embodiments, conditioned culture media were themselves assayed for ATP. However, the various components of media, such as buffers, sugars, amino acids, pH indicators, salts, etc., as well as the various factors found in serum (equine, bovine, etc.) may inhibit luciferase activity.
The luciferase-luciferin reaction was initiated by combining 100 μl of the reagent composition composition with 100 μl cell media with serum, varying final concentrations of DTAB (as indicated below in Table Q) and 1.0 μM ATP was added to each reaction plus or minus 10 μM sodium pyrophosphate in wells of a 96-well microtiter luminometer plate; each experimental condition was prepared in triplicate. At various times after initiating the reaction, rlu values were recorded using an Orion microplate luminometer (Berthold Detection Systems; Pforzheim, Germany).

[2] = system: ATPase activity endogenous to L929 cell lysate; experiment: Detergent inhibition of ATPase endogenous to L929 cell lysate (ATP remaining by luciferase luminescence, 22° C.); format: biochemical; set-up: key to Relative ATPase Activity, slope det/slope lysate: slope with detergent / slope without; ≥1.0 = 100% activity, 0.5 = 50%
Description: Three separate detergents in each of four detergent classes were tested: anionic [SDS (Sodium dodecyl sulfate), Bioterge (an α olefin sulfate), and sodium deoxycholate], nonionic [TRITON X-100, BigCHAP (N,N-bis(3-D-Gluconamidopropyl)cholamide) and THESIT (polyethylene glycol 400 dodecyl ether, Fluka, #88315)], cationic [BDDABr (Benzyldimethyldodecylammonium bromide), CTAB (Cetyltrimethylammonium bromide), and DTAB (dodecyltrimethylammonium bromide)] and zwitterionic [CHAPS (3[(3-Cholamidopropyl)dimethylammonio]propanesulfonic acid), CHAPSO (3-([3-Cholamidopropyl]dimethylammonio)-2-hydroxy-1-propanesulfonate), and Sulfobetaine 3-10 ([…]-N,N-dimethyl-3-ammonio-1-propanesulfonate)]. Detergents were obtained from Sigma, Fluka and Aldrich.
L929 cells (ATCC CCL-1; 1.5×10^5 cells/ml) in F12/DMEM (Hyclone, SH30023) containing 10% horse serum (Hyclone, SH30074) were frozen and thawed for four cycles to create a cell lysate. Then 50 μl of stock detergent solutions [10%, 5.0%, 1.0%, and 0.5% (w/v)] were separately added to 450 μl cell lysate, creating a final detergent concentration in the cell lysate sample of 1.0%, 0.5%, 0.1%, and 0.05%, respectively (these percentage values are those used in Tables D and E herein below). Control samples contained either lysate only or 1.0 μM ATP in 15 mM HEPES buffer (pH 7.5). All samples were incubated at 22° C. (room temperature) for the duration of the experiment.
At various timepoints, 20 μl from each sample/detergent mixture was added to a 96-well luminometer plate in triplicate, and then 100 μl of a solution (“luciferase-luciferin” or “L/L reagent”) containing 25 mM HEPES buffer (pH 7.5), 40 μg luciferase enzyme LucPpe2m146 (Promega, E140), 100 μM luciferin (Promega), and 10 mM MgSO4 was added to each well. The L/L reagent was stored at 4° C. for the duration of the experiment and then allowed to reach ambient temperature just before assaying. After mixing the contents of the plate, light output was measured with a Dynex MLX microtiter plate luminometer (Chantilly, Va.), 0.5 second reads per well with the first measurement taken five minutes after the detergent solution was combined with the sample. The average relative light units and the timepoint at which it was measured (rlu; Table D) and percent of remaining luciferase activity at the timepoint (Table E) are reported; controls were run with each set of experimental conditions as indicated. The cationic and anionic detergents were assayed on one day with one set of controls. The zwitterionic and nonionic detergents were assayed on a separate day with a separate set of controls. The DTAB at 0.5% was assayed on both days (1 and 2).
The experiment was performed as detailed in Example 1. The average relative light unit values and the percent of ATP remaining values are listed below in Table F and G respectively.
The log of the percent of ATP remaining after original timepoint values from Table E and Table G were plotted on the y axis against time (in minutes) on the x axis. The slope of the line generated by these values in the presence of detergent was divided by the slope of the line generated by the values in the absence of detergent (lysate control) resulting in the Relative ATPase Activity values listed below in Table H.
A relative activity value of 1.0 or greater indicates 100% cellular ATPase activity at the concentration of detergent tested. A relative activity value of 0.5 indicates a two-fold (or 50%) decrease in the level of cellular ATPase activity at the concentration of detergent tested when compared to the ATPase activity level in the absence of the detergent. A relative activity value of 0.2 indicates a five-fold (or 80%) decrease in the level of cellular ATPase activity at the concentration of detergent tested when compared to the ATPase activity level in the absence of the detergent.

O=P([O-])([O-])OP(=O)([O-])[O-].[Na+].[Na+].[Na+].[Na+] [Ppi, sodium pyrophosphate]
decrease of luminescence [1]: ten-fold

TRITON X-100
Average Relative Light Unit Values ([2]; 0.05% detergent, 5 min): 6160.71 rlu | Percent ATP Remaining ([2]; 0.05% detergent, 5 min): 100% | Average Relative Light Unit Values ([2]; 0.05% detergent, 75 min): 1964.17 rlu | Percent ATP Remaining ([2]; 0.05% detergent, 75 min): 31.9% | Average Relative Light Unit Values ([2]; 0.05% detergent, 169 min): 822.48 rlu | Percent ATP Remaining ([2]; 0.05% detergent, 169 min): 13.4% | Average Relative Light Unit Values ([2]; 0.05% detergent, 222 min): 303.73 rlu | Percent ATP Remaining ([2]; 0.05% detergent, 222 min): 4.9% | Average Relative Light Unit Values ([2]; 0.05% detergent, 260 min): 147.48 rlu | Percent ATP Remaining ([2]; 0.05% detergent, 260 min): 2.4% | Relative ATPase Activity, slope det/slope lysate ([2]; 0.05 percent detergent): 1.228 | Slope (log percent ATP remaining vs time in minutes) ([2]; 0.05 percent detergent): −0.0065 | Average Relative Light Unit Values ([2]; 0.1% detergent, 5 min): 6837.20 rlu | Percent ATP Remaining ([2]; 0.1% detergent, 5 min): 100% | Average Relative Light Unit Values ([2]; 0.1% detergent, 75 min): 3004.57 rlu | Percent ATP Remaining ([2]; 0.1% detergent, 75 min): 43.9% | Average Relative Light Unit Values ([2]; 0.1% detergent, 169 min): 1643.05 rlu | Percent ATP Remaining ([2]; 0.1% detergent, 169 min): 24.0% | Average Relative Light Unit Values ([2]; 0.1% detergent, 222 min): 801.38 rlu | Percent ATP Remaining ([2]; 0.1% detergent, 222 min): 11.7% | Average Relative Light Unit Values ([2]; 0.1% detergent, 260 min): 448.93 rlu | Percent ATP Remaining ([2]; 0.1% detergent, 260 min): 6.6% | Relative ATPase Activity, slope det/slope lysate ([2]; 0.10 percent detergent): 0.889 | Slope (log percent ATP remaining vs time in minutes) ([2]; 0.10 percent detergent): −0.0047 | Average Relative Light Unit Values ([2]; 0.5% detergent, 5 min): 6106.61 rlu | Percent ATP Remaining ([2]; 0.5% detergent, 5 min): 100% | Average Relative Light Unit Values ([2]; 0.5% detergent, 75 min): 1880.98 rlu | Percent ATP Remaining ([2]; 0.5% detergent, 75 min): 30.8% | Average Relative Light Unit Values ([2]; 0.5% detergent, 169 min): 871.01 rlu | Percent ATP Remaining ([2]; 0.5% detergent, 169 min): 14.3% | Average Relative Light Unit Values ([2]; 0.5% detergent, 222 min): 378.58 rlu | Percent ATP Remaining ([2]; 0.5% detergent, 222 min): 6.2% | Average Relative Light Unit Values ([2]; 0.5% detergent, 260 min): 195.42 rlu | Percent ATP Remaining ([2]; 0.5% detergent, 260 min): 3.2% | Relative ATPase Activity, slope det/slope lysate ([2]; 0.50 percent detergent): 1.117 | Slope (log percent ATP remaining vs time in minutes) ([2]; 0.50 percent detergent): −0.0059 | Average Relative Light Unit Values ([2]; 1.0% detergent, 5 min): 6073.78 rlu | Percent ATP Remaining ([2]; 1.0% detergent, 5 min): 100% | Average Relative Light Unit Values ([2]; 1.0% detergent, 75 min): 1774.10 rlu | Percent ATP Remaining ([2]; 1.0% detergent, 75 min): 29.2% | Average Relative Light Unit Values ([2]; 1.0% detergent, 169 min): 839.14 rlu | Percent ATP Remaining ([2]; 1.0% detergent, 169 min): 13.8% | Average Relative Light Unit Values ([2]; 1.0% detergent, 222 min): 331.95 rlu | Percent ATP Remaining ([2]; 1.0% detergent, 222 min): 5.5% | Average Relative Light Unit Values ([2]; 1.0% detergent, 260 min): 174.89 rlu | Percent ATP Remaining ([2]; 1.0% detergent, 260 min): 2.9% | Relative ATPase Activity, slope det/slope lysate ([2]; 1.00 percent detergent): 1.152 | Slope (log percent ATP remaining vs time in minutes) ([2]; 1.00 percent detergent): −0.0061

polyethylene glycol 400 dodecyl ether [THESIT]
Average Relative Light Unit Values ([2]; 0.05% detergent, 5 min): 5632.96 rlu | Percent ATP Remaining ([2]; 0.05% detergent, 5 min): 100% | Average Relative Light Unit Values ([2]; 0.05% detergent, 75 min): 1601.09 rlu | Percent ATP Remaining ([2]; 0.05% detergent, 75 min): 28.4% | Average Relative Light Unit Values ([2]; 0.05% detergent, 169 min): 623.38 rlu | Percent ATP Remaining ([2]; 0.05% detergent, 169 min): 11.1% | Average Relative Light Unit Values ([2]; 0.05% detergent, 222 min): 211.67 rlu | Percent ATP Remaining ([2]; 0.05% detergent, 222 min): 3.8% | Average Relative Light Unit Values ([2]; 0.05% detergent, 260 min): 110.15 rlu | Percent ATP Remaining ([2]; 0.05% detergent, 260 min): 2.0% | Relative ATPase Activity, slope det/slope lysate ([2]; 0.05 percent detergent): 1.295 | Slope (log percent ATP remaining vs time in minutes) ([2]; 0.05 percent detergent): −0.0068 | Average Relative Light Unit Values ([2]; 0.1% detergent, 5 min): 6022.32 rlu | Percent ATP Remaining ([2]; 0.1% detergent, 5 min): 100% | Average Relative Light Unit Values ([2]; 0.1% detergent, 75 min): 2654.97 rlu | Percent ATP Remaining ([2]; 0.1% detergent, 75 min): 44.1% | Average Relative Light Unit Values ([2]; 0.1% detergent, 169 min): 1509.07 rlu | Percent ATP Remaining ([2]; 0.1% detergent, 169 min): 25.1% | Average Relative Light Unit Values ([2]; 0.1% detergent, 222 min): 755.94 rlu | Percent ATP Remaining ([2]; 0.1% detergent, 222 min): 12.6% | Average Relative Light Unit Values ([2]; 0.1% detergent, 260 min): 447.44 rlu | Percent ATP Remaining ([2]; 0.1% detergent, 260 min): 7.4% | Relative ATPase Activity, slope det/slope lysate ([2]; 0.10 percent detergent): 0.850 | Slope (log percent ATP remaining vs time in minutes) ([2]; 0.10 percent detergent): −0.0045 | Average Relative Light Unit Values ([2]; 0.5% detergent, 5 min): 6392.75 rlu | Percent ATP Remaining ([2]; 0.5% detergent, 5 min): 100% | Average Relative Light Unit Values ([2]; 0.5% detergent, 75 min): 2304.48 rlu | Percent ATP Remaining ([2]; 0.5% detergent, 75 min): 36.0% | Average Relative Light Unit Values ([2]; 0.5% detergent, 169 min): 1122.24 rlu | Percent ATP Remaining ([2]; 0.5% detergent, 169 min): 17.6% | Average Relative Light Unit Values ([2]; 0.5% detergent, 222 min): 487.28 rlu | Percent ATP Remaining ([2]; 0.5% detergent, 222 min): 7.6% | Average Relative Light Unit Values ([2]; 0.5% detergent, 260 min): 240.72 rlu | Percent ATP Remaining ([2]; 0.5% detergent, 260 min): 3.8% | Relative ATPase Activity, slope det/slope lysate ([2]; 0.50 percent detergent): 1.065 | Slope (log percent ATP remaining vs time in minutes) ([2]; 0.50 percent detergent): −0.0056 | Average Relative Light Unit Values ([2]; 1.0% detergent, 5 min): 6204.02 rlu | Percent ATP Remaining ([2]; 1.0% detergent, 5 min): 100% | Average Relative Light Unit Values ([2]; 1.0% detergent, 75 min): 1979.43 rlu | Percent ATP Remaining ([2]; 1.0% detergent, 75 min): 31.9% | Average Relative Light Unit Values ([2]; 1.0% detergent, 169 min): 968.14 rlu | Percent ATP Remaining ([2]; 1.0% detergent, 169 min): 15.6% | Average Relative Light Unit Values ([2]; 1.0% detergent, 222 min): 416.45 rlu | Percent ATP Remaining ([2]; 1.0% detergent, 222 min): 6.7% | Average Relative Light Unit Values ([2]; 1.0% detergent, 260 min): 210.78 rlu | Percent ATP Remaining ([2]; 1.0% detergent, 260 min): 3.4% | Relative ATPase Activity, slope det/slope lysate ([2]; 1.00 percent detergent): 1.096 | Slope (log percent ATP remaining vs time in minutes) ([2]; 1.00 percent detergent): −0.0058
